Test results published in patent US11771694B2, “Arylamide compounds for treatment and prevention of viral infections” (priority 2020, dated 2023).
Values after ≈ are worked out from the molar mass of the structure shown. Read-outs that look alike come from different tables or passages of the source.

Key:
SARS-CoV-2 = assay type: cell-based; conditions: Calu-3; MOI 0.05; 24 hpi
Entero. faecalis = assay: Broth microdilution MIC; assay type: cell-based; conditions: Enterococcus faecalis
Entero. faecium (VRE) = assay: Broth microdilution MIC; assay type: cell-based; conditions: Enterococcus faecium
Staph. aureus (MRSA) = assay: Broth microdilution MIC; assay type: cell-based; conditions: Staphylococcus aureus
Staph. epidermidis = assay: Broth microdilution MIC; assay type: cell-based; conditions: Staphylococcus epidermidis
Staph. saprophyticus = assay: Broth microdilution MIC; assay type: cell-based; conditions: Staphylococcus saprophyticus
Staph. spp. coagulase- = assay: Broth microdilution MIC; assay type: cell-based
Strept. agalactiae = assay: Broth microdilution MIC; assay type: cell-based; conditions: Streptococcus agalactiae
Strept. pneumoniae = assay: Broth microdilution MIC; assay type: cell-based; conditions: Streptococcus pneumoniae
Strept. pyogenes = assay: Broth microdilution MIC; assay type: cell-based; conditions: Streptococcus pyogenes
Strept. viridians = assay: Broth microdilution MIC; assay type: cell-based
Citrobacter fruendi = assay: Broth microdilution MIC; assay type: cell-based
Citrobacter koseri = assay: Broth microdilution MIC; assay type: cell-based
Enterobacter cloacae = assay: Broth microdilution MIC; assay type: cell-based
Escherichia coli = assay: Broth microdilution MIC; assay type: cell-based
Klebsiella oxtoca = assay: Broth microdilution MIC; assay type: cell-based
Klebsiella pneumoniae = assay: Broth microdilution MIC; assay type: cell-based
Morganella morganii = assay: Broth microdilution MIC; assay type: cell-based
Proteus mirabilis = assay: Broth microdilution MIC; assay type: cell-based
Proteus vulgaris = assay: Broth microdilution MIC; assay type: cell-based
Providencia stuartii = assay: Broth microdilution MIC; assay type: cell-based
Pseud. aeruginosa = assay: Broth microdilution MIC; assay type: cell-based; conditions: Pseudomonas aeruginosa
Serratia marcescens = assay: Broth microdilution MIC; assay type: cell-based
[1] = test system: Stenotrophomonas maltophilia; assay: Broth microdilution MIC; assay type: cell-based
Haemophilus influenzae = assay: Broth microdilution MIC; assay type: cell-based
Acinetobacter spp. = assay: Broth microdilution MIC; assay type: cell-based; conditions: 2-3 isolates/organism
[2] = test system: stationary phase cultures of MSSA and MRSA; assay: Time-kill against stationary phase cultures of MSSA and MRSA; assay type: cell-based, Staph. aureus; conditions: up to 10× the MIC; data not shown
[3] = test system: dextran sulfate sodium (DSS) induced colitis; assay: Mouse DSS colitis model; assay type: in vivo, mice; conditions: mouse, in vivo
[4] = 2-3 isolates/organism, read-out: MIC

Q: How did the “inhibition of infectious titer, each drug alone” value (SARS-CoV-2) turn out when `NC(=O)c1nc(F)c[nH]c1=O` [favipiravir, reference compound] was run?
A: The value was no more than 80%.

Q: What does the source list for `CN[C@H](CC(C)C)C(=O)N[C@H]1C(=O)N[C@@H](CC(N)=O)C(=O)N[C@H]2C(=O)N[C@H]3C(=O)N[C@H](C(=O)N[C@H](C(=O)O)c4cc(O)cc(O)c4-c4cc3ccc4O)[C@H](O)c3ccc(c(Cl)c3)Oc3cc2cc(c3O[C@@H]2O[C@H](CO)[C@@H](O)[C@H](O)[C@H]2O[C@H]2C[C@](C)(N)[C@H](O)[C@H](C)O2)Oc2ccc(cc2Cl)[C@H]1O` [Vancomycin]?
A: MIC (Entero. faecalis): 1 µg/mL (≈ 0.69 µM); MIC (Entero. faecium (VRE); VRE): > 128 µg/mL; MIC (Staph. aureus (MRSA); MRSA): 0.5 to 1 µg/mL (≈ 0.345 to 0.69 µM); MIC (Staph. epidermidis): 2 µg/mL (≈ 1.38 µM); MIC (Staph. saprophyticus): 1 to 2 µg/mL (≈ 0.69 to 1.38 µM); MIC (Staph. spp. coagulase-): 1 to 2 µg/mL (≈ 0.69 to 1.38 µM); MIC (Strept. agalactiae): 0.5 µg/mL (≈ 0.345 µM); MIC (Strept. pneumoniae): 0.5 µg/mL (≈ 0.345 µM); MIC (Strept. pyogenes): 0.5 µg/mL (≈ 0.345 µM); MIC (Strept. viridians): 0.5 to 1 µg/mL (≈ 0.345 to 0.69 µM); MIC (Citrobacter fruendi; Citrobacter): > 128 µg/mL; MIC (Citrobacter koseri): > 128 µg/mL; MIC (Enterobacter cloacae): > 128 µg/mL; MIC (Escherichia coli): > 128 µg/mL; MIC (Klebsiella oxtoca; Klebsiella): > 128 µg/mL; MIC (Klebsiella pneumoniae): > 128 µg/mL; MIC (Morganella morganii): > 128 µg/mL; MIC (Proteus mirabilis): > 128 µg/mL; MIC (Proteus vulgaris): > 128 µg/mL; MIC (Providencia stuartii): > 128 µg/mL; MIC (Pseud. aeruginosa): > 128 µg/mL; MIC (Serratia marcescens): > 128 µg/mL; MIC [1]: 32 to 128 µg/mL (≈ 22.1 to 88.3 µM); MIC (Haemophilus influenzae): 128 µg/mL (≈ 88.3 µM)

Q: With `CC(=O)NC[C@H]1CN(c2ccc(N3CCOCC3)c(F)c2)C(=O)O1` [Linezolid] as the compound, how does the MIC (Entero. faecalis; Entero. faecalis, 2-3 isolates/organism, read-out: MIC) read?
A: Its MIC is 1 to 2 µg/mL (≈ 2.96 to 5.93 µM).

Q: And the MIC (Entero. faecium (VRE); Entero. faecium (VRE), 2-3 isolates/organism, read-out: MIC)?
A: Its MIC is 1 to 2 µg/mL (≈ 2.96 to 5.93 µM).

Q: What about the MIC (Staph. aureus (MRSA); Staph. aureus (MRSA), 2-3 isolates/organism, read-out: MIC) of the same compound?
A: The MIC was 1 to 2 µg/mL (≈ 2.96 to 5.93 µM).

Q: And the MIC (Staph. epidermidis; Staph. epidermidis, 2-3 isolates/organism, read-out: MIC)?
A: The MIC was 0.5 to 1 µg/mL (≈ 1.48 to 2.96 µM).

Q: What about the MIC (Staph. saprophyticus; Staph. saprophyticus, 2-3 isolates/organism, read-out: MIC) of the same compound?
A: Its MIC is 1 to 2 µg/mL (≈ 2.96 to 5.93 µM).

Q: And the MIC (Staph. spp. coagulase-; Staph. spp. coagulase-, 2-3 isolates/organism, read-out: MIC)?
A: The MIC was 1 µg/mL (≈ 2.96 µM).

Q: What about the MIC (Strept. agalactiae; Strept. agalactiae, 2-3 isolates/organism, read-out: MIC) of the same compound?
A: Its MIC is 1 µg/mL (≈ 2.96 µM).

Q: And the MIC (Strept. pneumoniae; Strept. pneumoniae, 2-3 isolates/organism, read-out: MIC)?
A: The MIC was 1 µg/mL (≈ 2.96 µM).

Q: And the MIC (Strept. pyogenes; Strept. pyogenes, 2-3 isolates/organism, read-out: MIC)?
A: Its MIC is 1 µg/mL (≈ 2.96 µM).

Q: What about the MIC (Strept. viridians; Strept. viridians, 2-3 isolates/organism, read-out: MIC) of the same compound?
A: The MIC was 1 µg/mL (≈ 2.96 µM).

Q: And the MIC (Citrobacter fruendi; Citrobacter fruendi, 2-3 isolates/organism, read-out: MIC)?
A: The MIC was greater than 16 µg/mL.

Q: What about the MIC (Citrobacter koseri; [4]) of the same compound?
A: The MIC was greater than 16 µg/mL.

Q: And the MIC (Enterobacter cloacae; [4])?
A: The MIC was greater than 16 µg/mL.

Q: And the MIC (Escherichia coli; [4])?
A: The MIC was greater than 16 µg/mL.

Q: And the MIC (Klebsiella oxtoca; Klebsiella oxtoca, 2-3 isolates/organism, read-out: MIC)?
A: Its MIC is greater than 16 µg/mL.

Q: What about the MIC (Klebsiella pneumoniae; [4]) of the same compound?
A: The MIC was greater than 16 µg/mL.

Q: And the MIC (Morganella morganii; [4])?
A: Its MIC is greater than 16 µg/mL.

Q: What about the MIC (Proteus mirabilis; [4]) of the same compound?
A: The MIC was greater than 16 µg/mL.

Q: And the MIC (Proteus vulgaris; [4])?
A: The MIC was greater than 16 µg/mL.

Q: What about the MIC (Providencia stuartii; [4]) of the same compound?
A: Its MIC is greater than 16 µg/mL.

Q: And the MIC (Acinetobacter spp.)?
A: The MIC was greater than 16 µg/mL.

Q: And the MIC (Pseud. aeruginosa; Pseud. aeruginosa, 2-3 isolates/organism, read-out: MIC)?
A: Its MIC is greater than 16 µg/mL.

Q: And the MIC (Serratia marcescens; [4])?
A: The MIC was greater than 16 µg/mL.

Q: What about the MIC [1, 4] of the same compound?
A: The MIC was greater than 16 µg/mL.

Q: How did the “antimicrobial activity against stationary phase cultures” value [2] turn out when `CCCCCCCCCC(=O)N[C@@H](Cc1c[nH]c2ccccc12)C(=O)N[C@H](CC(N)=O)C(=O)N[C@@H](CC(=O)O)C(=O)N[C@@H]1C(=O)NCC(=O)N[C@@H](CCCN)C(=O)N[C@@H](CC(=O)O)C(=O)N[C@H](C)C(=O)N[C@@H](CC(=O)O)C(=O)NCC(=O)N[C@H](CO)C(=O)N[C@@H]([C@H](C)CC(=O)O)C(=O)N[C@@H](CC(=O)c2ccccc2N)C(=O)O[C@@H]1C` [Daptomycin, reference compound] was run?
A: The value was “little antimicrobial activity”.

Q: How did the MIC (Staph. epidermidis) turn out when `CC(C)(O/N=C(\C(=O)N[C@@H]1C(=O)N2C(C(=O)[O-])=C(C[n+]3ccccc3)CS[C@H]12)c1csc(N)n1)C(=O)O` [Ceftazidime] was run?
A: Its MIC is 16 to 32 µg/mL (≈ 29.3 to 58.5 µM).

Q: And the MIC (Klebsiella oxtoca; Klebsiella)?
A: The MIC was 0.06 to 0.12 µg/mL (≈ 0.11 to 0.22 µM).

Q: And the MIC (Proteus vulgaris)?
A: Its MIC is 0.12 µg/mL (≈ 0.22 µM).

Q: And the MIC (Providencia stuartii)?
A: The MIC was 0.12 to 64 µg/mL (≈ 0.22 to 117 µM).

Q: Which “mean reduction in IL-1β in distal colon tissue” value [3] does the source give for `Nc1ccc(O)c(C(=O)O)c1` [5-ASA, reference compound] here?
A: Its value is 33%.

Q: And the “mean reduction in IL-6 in distal colon tissue” value [3]?
A: The value was 86%.
